According to patent EP0244803B1, “Novel dopamine beta hydroxylase inhibitors” (MERRELL DOW PHARMACEUTICALS INC., priority 1986, dated 1987):

Assays:
[1] = molecular target: T1, dopamine beta-hydroxylase (DBH) (Bos taurus, UniProt P15101); assay: In vitro DBH inhibition: conversion of tyramine to octopamine, oxygen uptake measured with a polarographic electrode; assay type: biochemical; settings: pH 5, 37°C preferred; concentration at which DBH activity was halved; read-out: IC₅₀
T1 sequence (P15101 33-610): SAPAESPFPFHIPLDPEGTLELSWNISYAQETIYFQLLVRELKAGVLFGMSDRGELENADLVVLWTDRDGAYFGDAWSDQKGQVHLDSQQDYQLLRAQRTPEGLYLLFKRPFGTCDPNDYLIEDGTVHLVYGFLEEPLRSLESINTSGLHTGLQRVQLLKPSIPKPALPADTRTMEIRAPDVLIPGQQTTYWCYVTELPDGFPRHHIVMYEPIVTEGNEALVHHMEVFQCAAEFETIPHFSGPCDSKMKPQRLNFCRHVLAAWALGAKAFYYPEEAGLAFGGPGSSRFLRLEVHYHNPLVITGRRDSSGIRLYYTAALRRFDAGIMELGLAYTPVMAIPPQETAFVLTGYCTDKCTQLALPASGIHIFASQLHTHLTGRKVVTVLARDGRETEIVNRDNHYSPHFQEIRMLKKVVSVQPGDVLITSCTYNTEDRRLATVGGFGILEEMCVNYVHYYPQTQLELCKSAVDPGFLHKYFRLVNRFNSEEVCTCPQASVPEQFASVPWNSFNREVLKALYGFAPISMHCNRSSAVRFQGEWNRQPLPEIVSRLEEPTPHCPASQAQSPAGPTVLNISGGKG
Procedure: The DBH inhibitory properties of the compounds of this invention can readily be determined in vitro by standard and well known procedures for assaying conversion of tyramine to octopamine in the presence of dopamine beta-hydroxylase. Enzymatic oxygenation by DBH is determined in aqueous solution in the presence of molecular oxygen, an electron donor such as ascorbate, and the necessary cofactors for the enzyme at pH of 5 and a temperature of 20°-40°C, preferably 37°C. The test compound is added at the desired concentration, and the system is incubated.

[2] = system: DBH; assay: In vivo DBH inhibition: heart dopamine level in spontaneously hypertensive rats; settings: Treated SHR's, 50 mg/kg, IP, 3 hours post dose; mean ± standard deviation; micrograms of dopamine per gram of heart tissue; *** p<.001 vs control
Procedure: In this test spontaneously hypertensive rats are dosed (i.p.) at 50 mg per kilogram of body weight and sacrificed three hours later.

[3] = system: spontaneously hypertensive rats (SHR's); assay: Antihypertensive effect: blood pressure monitored continuously in SHR's after ip administration; assay type: in vivo; settings: 50 mg/kg; for Max Change MBP: mean difference ± standard deviation; for Max Change MBP (percent, in parentheses): percent change printed in parentheses
Procedure: The test compound is administered intraperitoneally (ip) to rats and the blood pressure monitored continuously.

| Molecule | IC50 [1] [µM] | Heart DA [2] | Max Change MBP [3] [mmHg] | Max Change MBP (percent, in parentheses) [3] [%] |
| --- | --- | --- | --- | --- |
| 1-[(Fluoro-2-thienyl)methyl]-1,3-dihydro-2H-imidazole-2-thione [Compound 6] | 2.9 | Treated .045±.005*** µg/g | -42±17 | 25 |
| S=c1[nH]ccn1Cc1cccs1 [Compound 1, 1,3-Dihydro-(2-thienylmethyl)-2H-imidazole-2-thione] |  | Treated .066±.005*** µg/g | -30±21 | 18 |
| S=c1[nH]ccn1Cc1ccsc1 [Compound 2, 1,3-Dihydro-1-(3-thienylmethyl)-2H-imidazole-2-thione] |  | Treated .066±.012*** µg/g | -21±27 | 12 |
| S=c1[nH]ccn1Cc1ccco1 [Compound 3, 1-(2-Furanylmethyl)-1,3-dihydro-2H-imidazole-2-thione] |  | Treated .079±.004*** µg/g |  |  |
| S=c1[nH]ccn1Cc1ccc(Cl)s1 [Compound 4, 1-[(5-Chloro-2-thienyl)methyl]-1,3-dihydro-2H-imidazole-2-thione] |  | Treated .046±.009*** µg/g | -22±5 | 13 |
| Cc1ccc(Cn2cc[nH]c2=S)s1 [Compound 5, 1,3-Dihydro-1-[(5-methyl-2-thienyl)methyl]-2H-imidazole-2-thione] | 6 | Treated .048±.004*** µg/g | -37±19 | 10 |
